Laboratory results taken from PubChem BioAssay AID196 (DTP/NCI, 2004).
Values joined by “and” are separate entries in the source; they are usually repeats but may differ in a detail not shown here. Equal values may be shown once. Inconclusive results and toxic doses are left out.

Tested on: BDF1 mice, intracerebral B16 melanoma, median survival T/C
Assay: NCI In Vivo Anticancer Drug Screen. Data for tumor model B16 Melanoma (intracerebral) in B6D2F1 (BDF1) mice
Details: endpoint: median survival time, higher = longer survival
Method: The antitumor activity of compounds was measured in mice bearing transplantable tumors. Survival or tumor size were measured and the results are expressed as the measurement made in the treated group (T) divided by the measurement made in the vehicle treated control group (C). The tumor model used in this assay is B16 Melanoma (intracerebral) in B6D2F1 (BDF1) mice

For `O=C1C(=O)c2ccccc2C(O)=C1CC=C(Cl)Cl`, the T/C (dose: 10.0 mg/kg/injection, schedule: Q01DX005 (ip), vehicle: Klucel (hydroxypropylcellulose) (HPC)) was 101 % of control, the T/C (dose: 20.0 mg/kg/injection, schedule: Q01DX005 (ip), vehicle: Klucel (hydroxypropylcellulose) (HPC)) was 98 % of control and the T/C (dose: 40.0 mg/kg/injection, schedule: Q01DX005 (ip), vehicle: Klucel (hydroxypropylcellulose) (HPC)) was 106 % of control.
In the case of `Cc1ncc(CNC(=O)N(CCCl)N=O)c(N)n1`, the T/C (dose: 12.5 mg/kg/injection, schedule: Q01DX009 (ip), vehicle: Klucel (hydroxypropylcellulose) (HPC)) is reported as 179 % of control and the T/C (dose: 25.0 mg/kg/injection, schedule: Q01DX009 (ip), vehicle: Klucel (hydroxypropylcellulose) (HPC)) is reported as 105 % of control.
With `CCN(CC)CCCC(C)Nc1c2ccc(Cl)cc2nc2ccc(OC)cc12` (stereo not drawn) the T/C (dose: 1.0 mg/kg/injection, schedule: Q01DX009 (ip), vehicle: saline with Tween-80) was 96 % of control, the T/C (dose: 2.0 mg/kg/injection, schedule: Q01DX009 (ip), vehicle: saline with Tween-80) was 151 % of control and the T/C (dose: 4.0 mg/kg/injection, schedule: Q01DX009 (ip), vehicle: saline with Tween-80) was 122 % of control. The T/C (dose: 8.0 mg/kg/injection, schedule: Q01DX009 (ip), vehicle: saline with Tween-80) was 105 % of control and 107 % of control, the T/C (dose: 16.0 mg/kg/injection, schedule: Q01DX009 (ip), vehicle: saline with Tween-80) was 105 % of control and the T/C (dose: 32.0 mg/kg/injection, schedule: Q01DX009 (ip), vehicle: saline with Tween-80) was 105 % of control. For the same compound, the T/C (dose: 64.0 mg/kg/injection, schedule: Q01DX009 (ip), vehicle: saline with Tween-80) was 112 % of control.
In the case of `CCCCN(C)N=Nc1c(C(N)=O)n[nH]c1C`, the T/C (dose: 32.0 mg/kg/injection, schedule: Q01DX005 (ip), vehicle: saline with Tween-80) is reported as 121 % of control.
